Experiments:
[1] = target: NAMPT (Homo sapiens, UniProt P43490); assay: Time-Resolved Fluorescence Resonance Energy Transfer (TR-FRET) Binding Assay of NAMPT with PRPP; settings: 200 μM PRPP and 2.5 mM ATP; 2 nM NAMPT, 2 nM probe, equilibrated 16 hours
Method: Time-Resolved Fluorescence Resonance Energy Transfer (TR-FRET) Binding Assay of NAMPT with PRPP
Compound handling and data processing were identical to the assay in the absence of substrates (above). Final concentrations were 1× assay buffer, 2% DMSO, 2 nM NAMPT, 2 nM probe, 1 nM Tb-anti-His antibody (Invitrogen #PV5895), 200 μM PRPP and 2.5 mM ATP. Reactions were equilibrated for 16 hours prior to measurement to allow for potential enzymatic modification of test compounds.

[2] = target: NAMPT (human, recombinant, C-terminally His-tagged) (Homo sapiens, UniProt P43490); assay: Time-Resolved Fluorescence Resonance Energy Transfer (TR-FRET) Binding Assay of NAMPT; settings: absence of substrates; 6.8 nM NAMPT, 200 nM probe, equilibrated 3 hours
Chain of NAMPT (human, recombinant, C-terminally His-tagged) (P43490 whole entry): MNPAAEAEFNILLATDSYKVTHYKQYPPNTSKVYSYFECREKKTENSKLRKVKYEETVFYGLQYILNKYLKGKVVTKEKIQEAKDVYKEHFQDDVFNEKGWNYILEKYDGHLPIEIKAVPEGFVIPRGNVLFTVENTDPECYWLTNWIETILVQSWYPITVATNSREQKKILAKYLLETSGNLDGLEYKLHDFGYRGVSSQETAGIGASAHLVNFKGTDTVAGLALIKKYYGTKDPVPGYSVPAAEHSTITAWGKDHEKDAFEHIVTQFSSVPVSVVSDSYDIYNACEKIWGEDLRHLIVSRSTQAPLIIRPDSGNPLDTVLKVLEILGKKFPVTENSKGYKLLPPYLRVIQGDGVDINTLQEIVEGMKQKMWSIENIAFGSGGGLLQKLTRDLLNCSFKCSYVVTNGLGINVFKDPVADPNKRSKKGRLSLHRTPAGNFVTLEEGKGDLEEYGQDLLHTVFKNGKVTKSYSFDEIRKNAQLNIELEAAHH
Method: Determination of the utility of compounds having Formula (I) as binders to and inhibitors of NAMPT was performed using Time-Resolved Fluorescence Resonance Energy Transfer (TR-FRET) binding assays.
Time-Resolved Fluorescence Resonance Energy Transfer (TR-FRET) Binding Assay of NAMPT
Test compounds were serially diluted (typically 11 half log dilutions) in neat DMSO to 50× final concentrations prior to dilution with assay buffer (50 mM HEPES (NaOH), pH 7.5, 100 mM NaCl, 10 mM MgCl2, 1 mM DTT, 1% Glycerol) to 3× and 6% DMSO. Six μL were transferred to 384-well low-volume plates (Owens Corning #3673). To this, 12 μL of a 1.5× solution containing enzyme, probe and antibody were added. Final concentrations in the 18 μL reactions were 1× assay buffer, 2% DMSO, 6.8 nM NAMPT (human, recombinant, C-terminally His-tagged), 200 nM probe (a potent nicotinamide-competitive inhibitor conjugated to Oregon Green 488) and 1 nM Tb-anti-His antibody (Invitrogen #PV5895). Reactions were equilibrated at room temperature for 3 hours prior to reading on an Envision multi-label plate reader (Perkin Elmer; Ex=337 nm, Em=520 and 495 nm). Time-resolved FRET ratios (Em520/Em495) were normalized to controls, plotted as a function of compound concentration and fit with the four-parameter logistic equation to determine IC50s.

Chain of NAMPT (P43490 whole entry): as above

SMILES	IC50 [1]	IC50 [2]
CC(C)CCN(Cc1ccc(Cl)cc1)c1ncc(C(=O)NCCCn2ccnc2)s1 [Example 59, 2-[(4-chlorobenzyl)(3-methylbutyl)amino]-N-[3-(1H-imidazol-1-yl)propyl]-1,3-thiazole-5-carboxamide]	266 nM	> 10000 nM
CC(C)CCN(Cc1ccc(C#N)cc1)c1ncc(C(=O)NCCCn2ccnc2)s1 [Example 60, 2-[(4-cyanobenzyl)(3-methylbutyl)amino]-N-[3-(1H-imidazol-1-yl)propyl]-1,3-thiazole-5-carboxamide]	4.97 nM	> 10000 nM
N#Cc1ccc(CN(C(=O)CC2CCOC2)c2ncc(C(=O)NCCCn3ccnc3)s2)cc1 (stereo not drawn) [Example 61, 2-[(4-cyanobenzyl)(tetrahydrofuran-3-ylacetyl)amino]-N-[3-(1H-imidazol-1-yl)propyl]-1,3-thiazole-5-carboxamide]	1.78 nM	1900 nM
NC(=O)C1CCCN(C(=O)N(Cc2ccc(F)cc2)c2ncc(C(=O)NCCCn3ccnc3)s2)C1 (stereo not drawn) [Example 65, N^1-(4-fluorobenzyl)-N^1-(5-{[3-(1H-imidazol-1-yl)propyl]carbamoyl}-1,3-thiazol-2-yl)piperidine-1,3-dicarboxamide]	5.37 nM	> 10000 nM
O=C(NCCCn1ccnc1)c1cnc(N(Cc2ccc(F)cc2)C(=O)N2CCC3(C2)OCCO3)s1 [Example 67, N-(4-fluorobenzyl)-N-(5-{[3-(1H-imidazol-1-yl)propyl]carbamoyl}-1,3-thiazol-2-yl)-1,4-dioxa-7-azaspiro[4.4]nonane-7-carboxamide]	3.53 nM	> 10000 nM
O=C(NCCCn1ccnc1)c1cnc(N(Cc2ccc(F)cc2)C(=O)N2CCCOCC2)s1 [Example 73, N-(4-fluorobenzyl)-N-(5-{[3-(1H-imidazol-1-yl)propyl]carbamoyl}-1,3-thiazol-2-yl)-1,4-oxazepane-4-carboxamide]	7.04 nM	> 10000 nM
CC(C)CCN(C(=O)C(C)Oc1ccccc1)c1ncc(C(=O)NCCCn2ccnc2)s1 (stereo not drawn) [Example 77, N-[3-(1H-imidazol-1-yl)propyl]-2-[(3-methylbutyl)(2-phenoxypropanoyl)amino]-1,3-thiazole-5-carboxamide]	0.774 nM	95.6 nM
O=C(NCCCn1ccnc1)c1cnc(N(Cc2ccc(F)cc2)C(=O)NCC2CCCO2)s1 (stereo not drawn) [Example 79, 2-{(4-fluorobenzyl)[(tetrahydrofuran-2-ylmethyl)carbamoyl]amino}-N-[3-(1H-imidazol-1-yl)propyl]-1,3-thiazole-5-carboxamide]	2.77 nM	6580 nM
O=C(NCCCn1ccnc1)c1cnc(N(Cc2ccc(F)cc2)C(=O)NCC2CCCCO2)s1 (stereo not drawn) [Example 81, 2-{(4-fluorobenzyl)[(tetrahydro-2H-pyran-2-ylmethyl)carbamoyl]amino}-N-[3-(1H-imidazol-1-yl)propyl]-1,3-thiazole-5-carboxamide]	1.78 nM	5280 nM
O=C(NCCCn1ccnc1)c1cnc(N(Cc2ccc(F)cc2)C(=O)NCC2OCCO2)s1 [Example 86, 2-{[(1,3-dioxolan-2-ylmethyl)carbamoyl](4-fluorobenzyl)amino}-N-[3-(1H-imidazol-1-yl)propyl]-1,3-thiazole-5-carboxamide]	2.66 nM	> 10000 nM
O=C(NCCCn1ccnc1)c1cnc(N(Cc2ccc(F)cc2)C(=O)NCC2COCCO2)s1 (stereo not drawn) [Example 88, 2-{[(1,4-dioxan-2-ylmethyl)carbamoyl](4-fluorobenzyl)amino}-N-[3-(1H-imidazol-1-yl)propyl]-1,3-thiazole-5-carboxamide]	0.602 nM	> 10000 nM

Further lines, results first:

IC50 [1]	IC50 [2]	SMILES
1.08 nM	810 nM	COCCC(=O)N(Cc1ccc(C#N)cc1)c1ncc(C(=O)NCCCn2ccnc2)s1 [Example 62, 2-[(4-cyanobenzyl)(3-methoxypropanoyl)amino]-N-[3-(1H-imidazol-1-yl)propyl]-1,3-thiazole-5-carboxamide]
0.693 nM	2250 nM	CC(C)CCNC(=O)N(Cc1ccc(F)cc1)c1ncc(C(=O)NCCCn2ccnc2)s1 [Example 63, 2-{(4-fluorobenzyl)[(3-methylbutyl)carbamoyl]amino}-N-[3-(1H-imidazol-1-yl)propyl]-1,3-thiazole-5-carboxamide]
2.97 nM	1850 nM	CC(C)CNC(=O)N(Cc1ccc(F)cc1)c1ncc(C(=O)NCCCn2ccnc2)s1 [Example 64, 2-{(4-fluorobenzyl)[(2-methylpropyl)carbamoyl]amino}-N-[3-(1H-imidazol-1-yl)propyl]-1,3-thiazole-5-carboxamide]
2.42 nM	> 10000 nM	O=C(NCCCn1ccnc1)c1cnc(N(Cc2ccc(F)cc2)C(=O)N2CC(O)C2)s1 [Example 66, 2-{(4-fluorobenzyl)[(3-hydroxyazetidin-1-yl)carbonyl]amino}-N-[3-(1H-imidazol-1-yl)propyl]-1,3-thiazole-5-carboxamide]
4.68 nM	> 10000 nM	COC1CCN(C(=O)N(Cc2ccc(F)cc2)c2ncc(C(=O)NCCCn3ccnc3)s2)C1 (stereo not drawn) [Example 68, 2-{(4-fluorobenzyl)[(3-methoxypyrrolidin-1-yl)carbonyl]amino}-N-[3-(1H-imidazol-1-yl)propyl]-1,3-thiazole-5-carboxamide]
3.98 nM	> 10000 nM	COCCN(C)C(=O)N(Cc1ccc(F)cc1)c1ncc(C(=O)NCCCn2ccnc2)s1 [Example 69, 2-{(4-fluorobenzyl)[(2-methoxyethyl)(methyl)carbamoyl]amino}-N-[3-(1H-imidazol-1-yl)propyl]-1,3-thiazole-5-carboxamide]
5.08 nM	> 10000 nM	CC1CN(C(=O)N(Cc2ccc(F)cc2)c2ncc(C(=O)NCCCn3ccnc3)s2)CC(C)O1 (stereo not drawn) [Example 70, N-(4-fluorobenzyl)-N-(5-{[3-(1H-imidazol-1-yl)propyl]carbamoyl}-1,3-thiazol-2-yl)-2,6-dimethylmorpholine-4-carboxamide]
0.7 nM	533 nM	CCN(CCOC)C(=O)N(Cc1ccc(F)cc1)c1ncc(C(=O)NCCCn2ccnc2)s1 [Example 71, 2-{[ethyl(2-methoxyethyl)carbamoyl](4-fluorobenzyl)amino}-N-[3-(1H-imidazol-1-yl)propyl]-1,3-thiazole-5-carboxamide]
3.99 nM	> 10000 nM	CC1(C)CN(C(=O)N(Cc2ccc(F)cc2)c2ncc(C(=O)NCCCn3ccnc3)s2)CCO1 [Example 72, N-(4-fluorobenzyl)-N-(5-{[3-(1H-imidazol-1-yl)propyl]carbamoyl}-1,3-thiazol-2-yl)-2,2-dimethylmorpholine-4-carboxamide]
0.969 nM	2900 nM	CCCOCCNC(=O)N(Cc1ccc(F)cc1)c1ncc(C(=O)NCCCn2ccnc2)s1 [Example 78, 2-{(4-fluorobenzyl)[(2-propoxyethyl)carbamoyl]amino}-N-[3-(1H-imidazol-1-yl)propyl]-1,3-thiazole-5-carboxamide]
1.37 nM	8020 nM	COCC(C)NC(=O)N(Cc1ccc(F)cc1)c1ncc(C(=O)NCCCn2ccnc2)s1 (stereo not drawn) [Example 80, 2-{(4-fluorobenzyl)[(1-methoxypropan-2-yl)carbamoyl]amino}-N-[3-(1H-imidazol-1-yl)propyl]-1,3-thiazole-5-carboxamide]
1.72 nM	7540 nM	COCCNC(=O)N(Cc1ccc(F)cc1)c1ncc(C(=O)NCCCn2ccnc2)s1 [Example 82, 2-{(4-fluorobenzyl)[(2-methoxyethyl)carbamoyl]amino}-N-[3-(1H-imidazol-1-yl)propyl]-1,3-thiazole-5-carboxamide]
0.998 nM	2890 nM	CCOCCNC(=O)N(Cc1ccc(F)cc1)c1ncc(C(=O)NCCCn2ccnc2)s1 [Example 83, 2-{[(2-ethoxyethyl)carbamoyl](4-fluorobenzyl)amino}-N-[3-(1H-imidazol-1-yl)propyl]-1,3-thiazole-5-carboxamide]
1.72 nM	3200 nM	CCC(COC)NC(=O)N(Cc1ccc(F)cc1)c1ncc(C(=O)NCCCn2ccnc2)s1 (stereo not drawn) [Example 84, 2-{(4-fluorobenzyl)[(1-methoxybutan-2-yl)carbamoyl]amino}-N-[3-(1H-imidazol-1-yl)propyl]-1,3-thiazole-5-carboxamide]
1.26 nM	2260 nM	CC(C)OCCNC(=O)N(Cc1ccc(F)cc1)c1ncc(C(=O)NCCCn2ccnc2)s1 [Example 87, 2-[(4-fluorobenzyl){[2-(propan-2-yloxy)ethyl]carbamoyl}amino]-N-[3-(1H-imidazol-1-yl)propyl]-1,3-thiazole-5-carboxamide]
1.98 nM	5830 nM	COCC(COC)NC(=O)N(Cc1ccc(F)cc1)c1ncc(C(=O)NCCCn2ccnc2)s1 [Example 89, 2-{[(1,3-dimethoxypropan-2-yl)carbamoyl](4-fluorobenzyl)amino}-N-[3-(1H-imidazol-1-yl)propyl]-1,3-thiazole-5-carboxamide]

Source: patent US9334264B2, “NAMPT inhibitors” (AbbVie Inc., priority 2012, dated 2016)
